The source made the active and inactive calls. The rule behind the calls is not given here. A value given as a limit tells only on which side of the number the result lay.

Here are results for 52 compounds from ChEMBL document CHEMBL5052853, “Isoxazole derivatives targeting tacc3 as anticancer agents” (2021).

One assay has as its system JIMT-1. Nature of the assay: Induction of apoptosis in human JIMT-1 cells at high concentration assessed as change in cleaved caspase-3 levels and measured by Western blot analysis. The format is functional, cell-based.
Details: not given
A general note: A western blot detects proteins with antibodies after separation by electrophoresis.
For `CC(C)CNc1ccnc(NCc2csc(-c3ccccc3)n2)n1`, the outcome was Active. With `CCN(Cc1ccncc1)Cc1c(O)ccc2c(-c3cc4ccccc4oc3=O)cc(=O)oc12`, the outcome was Active.

For the next assay, the system named is RT-4. In words: Antiproliferative activity against human RT-4 cells after 3 days by SRB assay. The format is functional, cell-based. Conditions: RT-4, 72 h. Background: The SRB assay estimates cell density from bound dye.
Compound `CC(C)CNc1ccnc(NCc2csc(-c3ccccc3)n2)n1` gave an IC50 of 7.07 µM. The compound `CCN(Cc1ccncc1)Cc1c(O)ccc2c(-c3cc4ccccc4oc3=O)cc(=O)oc12` registered an IC50 of 5.25 µM.

A further assay has as its system JIMT-1. Nature of the assay: Induction of DNA damage in human JIMT-1 cells at high concentration assessed as change in p-H2AX levels and measured by Western blot analysis. The assay is classed as functional, cell-based.
Details: not given
In the case of `CC(C)CNc1ccnc(NCc2csc(-c3ccccc3)n2)n1`, the result was Active. In the case of `CCN(Cc1ccncc1)Cc1c(O)ccc2c(-c3cc4ccccc4oc3=O)cc(=O)oc12`, the outcome was Active.

The subject of another assay is MCF-12A. Nature of the assay: Antiproliferative activity against human MCF-12A cells. The assay is classed as functional, cell-based.
Details: not given
Regarding `CC(C)CNc1ccnc(NCc2csc(-c3ccccc3)n2)n1`, the IC50 is above 10 µM. On the same count and under the same terms, the value for `CCN(Cc1ccncc1)Cc1c(O)ccc2c(-c3cc4ccccc4oc3=O)cc(=O)oc12` was above 10 µM.

The next assay has as its system JIMT-1. In words: Induction of mitotic arrest in human JIMT-1 cells at high concentration assessed as change in p-histone H3 levels and measured by Western blot analysis.
Details: not given
The format is functional, cell-based.
`CC(C)CNc1ccnc(NCc2csc(-c3ccccc3)n2)n1`: the result was Active. Same read-out and setting: for `CCN(Cc1ccncc1)Cc1c(O)ccc2c(-c3cc4ccccc4oc3=O)cc(=O)oc12` the value was “Active”.

For another assay, the system named is JIMT-1. In words: Antiproliferative activity against human JIMT-1 cells after 72 hrs by SRB assay. Conditions: JIMT-1, 72 h. The format is functional, cell-based.
`CCCOc1ccc(-c2cc(Nc3ccnc(N4CCOCC4)n3)on2)cc1` came in with a half-inhibitory concentration (IC50) above 10 µM. Compound `Fc1ccc(-c2cc(Nc3ccnc(N4CCOCC4)n3)on2)cc1` came in with a concentration for half-maximal inhibition (IC50) above 10 µM. On the same count and under the same terms, the value for `FC(F)(F)Oc1ccc(-c2cc(Nc3ccnc(N4CCOCC4)n3)on2)cc1` was above 10 µM; that for `c1cc(Nc2cc(-c3ccc4c(c3)OCO4)no2)nc(N2CCOCC2)n1` was 0.87 µM; that for `CCOc1ccc(-c2cc(Nc3ccnc(N4CCOCC4)n3)on2)cc1` was 0.81 µM. For `COc1ccc(-c2cc(Nc3ccnc(N4CCOCC4)n3)on2)cc1OC`, the IC50 was 0.73 µM. `CC(F)(F)c1ccc(-c2cc(Nc3ccnc(N4CCOCC4)n3)on2)cc1` yielded an IC50 above 10 µM. The compound `Clc1ccc(-c2cc(Nc3ccnc(N4CCOCC4)n3)on2)cc1` displayed a half-maximal inhibitory concentration (IC50) above 10 µM. `COc1ccc(-c2cc(Nc3ccnc(N4CCC(C(=O)O)CC4)n3)on2)cc1` returned an IC50 above 10 µM. In turn, `COc1ccc(-c2cc(Nc3ccnc(N4CCC(F)CC4)n3)on2)cc1F` had a concentration for half-maximal inhibition (IC50) of 0.145 µM.

For `COc1ccc(-c2cc(Nc3ccnc(N4CCCC4)n3)on2)cc1F`, it took 0.049 µM to reach half-maximal inhibition (IC50). `COc1ccc(-c2cc(Nc3ccnc(N4CCNCC4)n3)on2)cc1` returned a half-inhibitory concentration (IC50) above 10 µM. `COc1cccc(-c2cc(Nc3ccnc(N4CCOCC4)n3)on2)c1` displayed an IC50 of 3.44 µM. Take `COc1ccc(-c2cc(Nc3ccnc(N4C[C@@H]5C[C@H]4CO5)n3)on2)cc1`: the IC50 is 2.02 µM.

Take `CCc1ccc(-c2cc(Nc3ccnc(N4CCOCC4)n3)on2)cc1`: the concentration for half-maximal inhibition (IC50) stood at 0.259 µM. Against the preceding compound, the IC50 is about 7.8-fold lower.

For `CN(C)c1ccc(-c2cc(Nc3ccnc(N4CCC(F)CC4)n3)on2)cc1`, the half-inhibitory concentration (IC50) is 0.157 µM.

Compound `COc1ccc(-c2cc(Nc3ccnc(N4CCC(C(F)(F)F)CC4)n3)on2)cc1` had an IC50 of 0.056 µM. On the same count and under the same terms, the value for `COc1ccc(-c2cc(Nc3ccnc(N4CCN(C)CC4)n3)on2)cc1` was 1.56 µM; that for `COc1ccc(-c2cc(Nc3nc(N4CCC(F)CC4)ncc3F)on2)cc1` was 0.54 µM. In turn, `COc1ccc(-c2cc(Nc3ccnc(N4CCC(NN5CCOCC5)CC4)n3)on2)cc1` came in with a concentration for half-maximal inhibition (IC50) of 0.8 µM. Turning to `Cc1ccc(-c2cc(Nc3ccnc(N4CCOCC4)n3)on2)cc1`, the half-maximal inhibitory concentration (IC50) turned out to be 0.64 µM. `COc1ccc(-c2cc(N(C)c3ccnc(N4CCOCC4)n3)on2)cc1` returned a half-maximal inhibitory concentration (IC50) of 0.16 µM. Consider `COc1ccccc1-c1cc(Nc2ccnc(N3CCOCC3)n2)on1`, for which inhibition was half-maximal at 8.27 µM (IC50). In turn, `COc1ccc(-c2cc(Nc3ccnc(N4CCC(C)CC4)n3)on2)cc1` came in with an IC50 of 0.204 µM. This IC50 lies about 41-fold lower than the previous one. `Oc1ccc(-c2cc(Nc3ccnc(N4CCOCC4)n3)on2)cc1`: the IC50 is above 10 µM. In the case of `FC(F)Oc1ccc(-c2cc(Nc3ccnc(N4CCOCC4)n3)on2)cc1`, 4.23 µM corresponded to half-maximal inhibition (IC50). This counts as single-digit micromolar.

`COc1ccc(-c2cc(Nc3ccnc(N4C5CCC4COC5)n3)on2)cc1F`: it took 0.053 µM to reach half-maximal inhibition (IC50). Still for that read-out and setting: the value for `COc1ccc(-c2cc(Nc3ccnc(N4CCOCC4)n3)on2)cn1` was 7.3 µM; that for `COc1ccc(-c2cc(Nc3ccnc(N4CCN(CCO)CC4)n3)on2)cc1` was above 10 µM. Compound `COc1ccc(-c2cc(Nc3ccnc(N4CCC(F)CC4)n3)on2)cc1` gave a concentration for half-maximal inhibition (IC50) of 0.13 µM. On to `COc1ccc(-c2cc(Nc3ccnc(N4CCOCC4)n3)on2)cc1F`, for which the IC50 was found to be 0.013 µM. As for `COc1ccc(-c2cc(Nc3ccnc(N4C[C@@H](C)O[C@@H](C)C4)n3)on2)cc1`, inhibition was half-maximal at 0.23 µM (IC50). This IC50 lies about 18-fold higher than the previous one. The same measure, in the same setting: the value for `c1ccc(-c2cc(Nc3ccnc(N4CCOCC4)n3)on2)cc1` was above 10 µM; that for `COc1ccc(-c2cc(Nc3ccnc(N4CCCC4)n3)on2)cc1` was 0.105 µM; that for `COc1ccc(-c2cc(Nc3cc(C)nc(N4CCC(F)CC4)n3)on2)cc1` was 1 µM. `CC(C)c1ccc(-c2cc(Nc3ccnc(N4CCOCC4)n3)on2)cc1` gave a 50% inhibitory concentration (IC50) of 3.61 µM.

`FC(F)(F)c1ccc(-c2cc(Nc3ccnc(N4CCOCC4)n3)on2)cc1`: the IC50 was above 10 µM. For `COc1ccc(-c2cc(Nc3ccnc(N4CCOCC4)n3)on2)cc1Cl`, the half-maximal inhibitory concentration (IC50) worked out at 0.48 µM.

The compound `CCOC(=O)C1CCN(c2nccc(Nc3cc(-c4ccc(OC)cc4)no3)n2)CC1` had an IC50 above 10 µM.

On to `COc1ccc(-c2cc(Nc3ccnc(N4C[C@H]5C[C@@H]4CO5)n3)on2)cc1`, for which the half-inhibitory concentration (IC50) was found to be 0.48 µM.

As to `CSc1ccc(-c2cc(Nc3ccnc(N4CCOCC4)n3)on2)cc1`, the concentration for half-maximal inhibition (IC50) was determined as 0.03 µM. Compound `COc1ccc(-c2cc(Nc3ccnc(N4C5CCC4COC5)n3)on2)cc1` had an IC50 of 0.16 µM. The same measure, in the same setting: the value for `COc1ccc(-c2cc(Nc3ccnc(N4CCCCC4)n3)on2)cc1` was 0.116 µM; that for `COc1ccc(-c2cc(Nc3ccnc(N4CCC(F)(F)CC4)n3)on2)cc1` was 0.37 µM; that for `COc1ccc(-c2cc(Nc3ccnc(N4CCSCC4)n3)on2)cc1` was 0.113 µM. Compound `c1ccc(COc2ccc(-c3cc(Nc4ccnc(N5CCOCC5)n4)on3)cc2)cc1` came in with a half-maximal inhibitory concentration (IC50) above 10 µM. In the case of `CN(C)c1ccc(-c2cc(Nc3ccnc(N4CCOCC4)n3)on2)cc1`, the concentration for half-maximal inhibition (IC50) was 0.12 µM. In turn, `COc1ccc(-c2cc(Nc3ccnc(N4CC5CCC(C4)O5)n3)on2)cc1` came in with an IC50 of 3.09 µM. Compound `COc1ccc(-c2cc(Nc3ccnc(N4CCC(CCO)CC4)n3)on2)cc1` gave an IC50 of 3.97 µM. Compound `COc1ccc(-c2cc(Nc3ccnc(N4CCS(=O)(=O)CC4)n3)on2)cc1` gave a 50% inhibitory concentration (IC50) above 10 µM.

For the next assay, the system named is JIMT-1. Nature of the assay: Induction of apoptosis in human JIMT-1 cells at high concentration assessed as change in cleaved PARP levels and measured by Western blot analysis.
Details: not given
The format is functional, cell-based.
As to `CC(C)CNc1ccnc(NCc2csc(-c3ccccc3)n2)n1`, the outcome was Active.

Regarding `CCN(Cc1ccncc1)Cc1c(O)ccc2c(-c3cc4ccccc4oc3=O)cc(=O)oc12`, the result was Active.

The next assay deals with RT-112. In words: Antiproliferative activity against human RT-112 cells after 3 days by SRB assay. The assay is classed as functional, cell-based. Conditions: RT-112, 72 h.
As for `CC(C)CNc1ccnc(NCc2csc(-c3ccccc3)n2)n1`, half-maximal inhibition (IC50) required 8.71 µM. `CCN(Cc1ccncc1)Cc1c(O)ccc2c(-c3cc4ccccc4oc3=O)cc(=O)oc12` displayed an IC50 of 1.2 µM.

The IC50 is the concentration that inhibits the measured activity by half. Low values mean greater potency, high ones weaker potency.
